Test results published in patent publication US11318182B1, “Plant extract for skin infections” (priority 2021, dated 2022).

What was measured:
Type in all cases: cell-based
Details in all cases: plant extract 29 μg/ml
[1] = system: Bacillus cereus; test: Growth inhibition zone on nutrient agar
Description: (§1) In the preferred embodiment, grinded garlic, ginger, papaya seed, clover bud, tamarind and the coconut oil components are extracted by 95% ethanol and kept in dark four days at room temperature. The extracted homogenous texture is filtered through Whatman filter paper no. 1 by using Thermo Scientific Vacuum USA. The filtered extract pH is adjusted to 5.6. A drop of Lavender is added to the final concentration and the extract is refrigerated in sealed, amber-colored bottles at 4° C. after the concentration is determined. […], Penicillium notatum, and Aspergillus niger used as fungal species. Known isolates of Escherichia coli, Bacillus serous and Staphylococcus aureus used as bacterial species. Sabouraud dextrose agar (SDA) medium and Nutrient agar plates (NAP) used to confirm in vitro inhibition of the fungus and bacteria in 24, 48 and 72 hours at room temperature and 37° C. respectively. The antimicrobial activity of plant-extract specified by the formation of an inhibition zone is measured by using Vernier calipers. Also, 28 individuals evaluated after using the mixed plant-extract within two weeks trial controlling fungal and bacterial infections of the skin. […] Staphylococcus aureus, Bacillus cereus and Escherichia coli grown on nutrient agar (NA). Aspergillus niger, Penicillium notatum and […] tested fungal species grown on Sabouraud dextrose agar (SDA). […] The SDA and NA plates were filled with 20 ml of media and solidified in 24 hours at 37° C. incubator before inoculation of the of the microorganisms and the products to be tested.

[2] = system: Escherichia coli; test: Growth inhibition zone on nutrient agar
Description: as §1

[3] = system: Staphylococcus aureus; test: Growth inhibition zone on nutrient agar
Description: as §1

[4] = system: Aspergillus niger; test: Growth inhibition zone on Sabouraud dextrose agar
Description: as §1

[5] = system: Serratia marcescens; test: Growth inhibition zone on Sabouraud dextrose agar
Description: as §1

[6] = system: Penicillium notatum; test: Growth inhibition zone on Sabouraud dextrose agar
Description: as §1

| Molecule | Growth inhibition by mm, B. cereus [1] [mm] | Growth inhibition by mm, E. coli [2] [mm] | Growth inhibition by mm, S. Aureus [3] [mm] | Growth inhibition by mm, A. niger [4] [mm] | Growth inhibition by mm, S. marcescens [5] [mm] | Growth inhibition by mm, P. notatum [6] [mm] |
| --- | --- | --- | --- | --- | --- | --- |
| Clc1ccccc1C(c1ccccc1)(c1ccccc1)n1ccnc1 [Clotrimazole 1%, clotrimazole] | 1 | 2.2 | 1.2 | 1.8 | 1.8 | 2.1 |
| CN(C)[C@@H]1C(O)=C(C(N)=O)C(=O)[C@@]2(O)C(O)=C3C(=O)c4c(O)cccc4[C@@](C)(O)[C@H]3C[C@@H]12 [Tetracycline] | 1.3 | 1.2 | 1.3 | 0.8 | 0.7 | 0.7 |
| C=CCCCCCCCCC(=O)O [Undecycleric add 25%, undecylenic acid] | 1.1 | 1.2 | 1.1 | 1.9 | 1.7 | 1.6 |
| Penicillin | 1.9 | 2.5 | 1.9 | 1.7 | 1.6 | 1.4 |
